In patent EP0311002A2, “Anthracyclin derivatives, a method for their preparation and their use as a drug” (HOECHST AKTIENGESELLSCHAFT, priority 1987, dated 1989):

Experiment: Qualitative solubility in solvents
Format: physicochemical

Löslichkeit (in Methanol, Ethylacetat, Chloroform und Toluol): leicht löslich | Löslichkeit (in Wasser und Hexan): unlöslich
Substance: 5‴-Epi-Cytorhodin S
